target: T1, human TREK-1 (Homo sapiens, UniProt O95069); assay: TREK-1 Thallium (Tl+) flux assay, Method 1; format: cell-based; conditions: TREK-1 Thallium (Tl+) flux assay, Method 1
T1 construct: expressed in transfected cells
T1 sequence (O95069 1-426): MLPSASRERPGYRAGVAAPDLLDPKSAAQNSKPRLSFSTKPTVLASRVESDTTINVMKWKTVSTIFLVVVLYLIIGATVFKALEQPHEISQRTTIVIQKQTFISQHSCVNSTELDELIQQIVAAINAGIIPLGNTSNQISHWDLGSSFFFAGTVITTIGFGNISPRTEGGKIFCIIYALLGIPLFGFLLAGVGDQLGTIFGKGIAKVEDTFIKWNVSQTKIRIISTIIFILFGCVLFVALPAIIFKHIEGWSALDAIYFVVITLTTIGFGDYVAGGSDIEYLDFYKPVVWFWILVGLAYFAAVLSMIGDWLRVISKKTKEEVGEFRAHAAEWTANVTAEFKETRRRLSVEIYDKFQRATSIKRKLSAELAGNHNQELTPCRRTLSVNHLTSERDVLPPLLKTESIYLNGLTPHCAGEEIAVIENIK
Procedure, shortened: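 Readout: Thallos fluorescence ratio, taken 25 s post-thallium relative to the pre-thallium baseline average, then converted to % inhibition. Cells were CHO-K1 stably expressing human TREK-1, dye-loaded and exposed to test compound (vehicle 0.3% DMSO) for 10 min prior to thallium stimulation.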

| IC50 [nM] | SMILES |
| --- | --- |
| 1260 | CCC(=O)N[C@H]1CC[C@@H](n2ncc(Cl)c2C(=O)Nc2ccc(OCc3ccccc3)cc2C)CC1 [Compound 392, N-(4-(benzyloxy)-2-methylphenyl)-4-chloro-1-(cis-4-propionamidocyclohexyl)-1H-pyrazole-5-carboxamide] |
| 4160 | Cc1cc(OCc2ccccc2)ccc1NC(=O)c1c(Cl)cnn1CC1CN(C(=O)C2CC2C)CCO1 (stereo not shown) [Compound 417, N-(4-(benzyloxy)-2-methylphenyl)-4-chloro-1-((4-(2-methylcyclopropane-1-carbonyl)morpholin-2-yl)methyl)-1H-pyrazole-5-carboxamide] |
| 5120 | CC(=O)N1CCC(n2ncc(Cl)c2C(=O)Nc2ncc(-c3cc(F)c(Cl)c(F)c3)cc2C)CC1 [Compound 426, 1-(1-acetylpiperidin-4-yl)-4-chloro-N-(5-(4-chloro-3,5-difluorophenyl)-3-methylpyridin-2-yl)-1H-pyrazole-5-carboxamide] |
| 2300 | Cc1cc(OCc2ccccc2)ccc1NC(=O)c1c(Cl)cnn1[C@H]1CC[C@@H](NC(=O)OC(C)(C)C)CC1 [Compound 404, tert-butyl (cis-4-(5-((4-(benzyloxy)-2-methylphenyl)carbamoyl)-4-chloro-1H-pyrazol-1-yl)cyclohexyl)carbamate] |

same assay, conditions: TREK-1 Thallium (Tl+) flux assay; no *^12 (Method 2) mark on these rows

| IC50 [nM] | SMILES |
| --- | --- |
| 480 | Cc1cc(C#Cc2ccccc2)cnc1NC(=O)c1c(Cl)cnn1CC(C)(C)C#N [Compound 276, 4-chloro-1-(2-cyano-2-methylpropyl)-N-(3-methyl-5-(phenylethynyl)pyridin-2-yl)-1H-pyrazole-5-carboxamide] |
| 560 | CC(=O)N1CCN(CCn2ncc(Cl)c2C(=O)Nc2ncc(C#Cc3ccccc3)cc2C)CC1 [Compound 303, 1-(2-(4-acetylpiperazin-1-yl)ethyl)-4-chloro-N-(3-methyl-5-(phenylethynyl)pyridin-2-yl)-1H-pyrazole-5-carboxamide] |
| 450 | Cc1cc(C#Cc2ccccc2)cnc1NC(=O)c1c(Cl)cnn1C1CCN(C(=O)C(F)(F)F)CC1 [Compound 268, 4-chloro-N-[3-methyl-5-(2-phenylethynyl)-2-pyridyl]-2-[1-(2,2,2-trifluoroacetyl)-4-piperidyl]pyrazole-3-carboxamide] |
| 820 | CC(=O)N[C@H]1C[C@H](n2ncc(Cl)c2C(=O)Nc2ncc(C#Cc3ccc(F)cc3)cc2C)C1 [Compound 351, 1-(trans-3-acetamidocyclobutyl)-4-chloro-N-(5-((4-fluorophenyl)ethynyl)-3-methylpyridin-2-yl)-1H-pyrazole-5-carboxamide] |
| 350 | Cc1cc(C#Cc2ccc(F)cc2)cnc1NC(=O)c1c(Cl)cnn1C1CCN(C(=O)C2CC2)C1 (stereo not shown) [Compound 229, 4-chloro-1-(1-(cyclopropanecarbonyl)pyrrolidin-3-yl)-N-(5-((4-fluorophenyl)ethynyl)-3-methylpyridin-2-yl)-1H-pyrazole-5-carboxamide] |
| 580 | Cc1cc(C#Cc2ccccc2)cnc1NC(=O)c1c(Cl)cnn1C1CCN(C(=O)OC(C)(C)C)C1 (stereo not shown) [Compound 307, tert-butyl 3-(4-chloro-5-((3-methyl-5-(phenylethynyl)pyridin-2-yl)carbamoyl)-1H-pyrazol-1-yl)pyrrolidine-1-carboxylate] |
| 1080 | Cn1nc(Cl)c(C(=O)Nc2ncc(C#Cc3ccccc3)cc2F)c1-c1ccc2c(cnn2C)c1 [Compound 372, 3-chloro-N-(3-fluoro-5-(phenylethynyl)pyridin-2-yl)-1-methyl-5-(1-methyl-1H-indazol-5-yl)-1H-pyrazole-4-carboxamide] |
| 1100 | CCN1CC(n2ncc(Cl)c2C(=O)Nc2ncc(C#Cc3ccccc3)cc2F)C1 [Compound 373, 4-chloro-1-(1-ethylazetidin-3-yl)-N-(3-fluoro-5-(phenylethynyl)pyridin-2-yl)-1H-pyrazole-5-carboxamide hydrate] |
| 360 | CC(C)(C#N)Cn1ncc(Cl)c1C(=O)Nc1ncc(C#Cc2ccccc2)cc1F [Compound 234, 4-chloro-1-(2-cyano-2-methylpropyl)-N-(3-fluoro-5-(phenylethynyl)pyridin-2-yl)-1H-pyrazole-5-carboxamide] |

same assay, conditions: TREK-1 Thallium (Tl+) flux assay; values without footnote *12 are Method 1

| IC50 [nM] | SMILES |
| --- | --- |
| 160 | CC(=O)N1CCC(C#N)(Cn2ncc(Cl)c2C(=O)Nc2ncc(C#Cc3ccccc3)cc2C)CC1 [Compound 84, 1-((1-acetyl-4-cyanopiperidin-4-yl)methyl)-4-chloro-N-(3-methyl-5-(phenylethynyl)pyridin-2-yl)-1H-pyrazole-5-carboxamide] |
| 290 | Cc1cc(C#Cc2cccs2)cnc1NC(=O)c1c(Cl)cnn1[C@H]1C[C@@H]2CN(C(=O)C(C)C)C[C@@H]2C1 [Compound 187, 4-chloro-1-[(3aR,5s,6aS)-2-(2-methylpropanoyl)octahydrocyclopenta [c]pyrrol-5-yl]-N-{3-methyl-5-[(thiophen-2-yl)ethynyl]pyridin-2-yl}-1H-pyrazole-5-carboxamide] |
| 100 | CC(=O)N1CCC(n2ncc(Cl)c2C(=O)Nc2ncc(C#Cc3ccccc3)cc2C)C(F)C1 (stereo not shown) [Compound 29, 1-(1-acetyl-3-fluoropiperidin-4-yl)-4-chloro-N-(3-methyl-5-(phenylethynyl)pyridin-2-yl)-1H-pyrazole-5-carboxamide] |
| 240 | Cc1cc(C#Cc2ccccc2)cnc1NC(=O)c1c(Cl)cnn1CC1(F)CCN(C(=O)OC(C)(C)C)CC1 [Compound 155, tert-butyl 4-((4-chloro-5-((3-methyl-5-(phenylethynyl)pyridin-2-yl)carbamoyl)-1H-pyrazol-1-yl)methyl)-4-fluoropiperidine-1-carboxylate] |
| 260 | Cc1cc(C#Cc2ccccc2)cnc1NC(=O)c1c(Cl)cnn1C[C@@H]1CCOC1 [Compound 160, (S)-4-chloro-N-(3-methyl-5-(phenylethynyl)pyridin-2-yl)-1-((tetrahydrofuran-3-yl)methyl)-1H-pyrazole-5-carboxamide] |
| 140 | Cc1cc(C#Cc2ccccc2)cnc1NC(=O)c1c(Cl)cnn1CC1CCN(C(=O)C(C)C)CC1 [Compound 53, 4-chloro-1-((1-isobutyrylpiperidin-4-yl)methyl)-N-(3-methyl-5-(phenylethnyl)pyridin-2-yl)-1H-pyrazole-5-carboxamide] |
| 200 | Cc1cc(C#Cc2ccc(F)cc2)cnc1NC(=O)c1c(Cl)cnn1C1CC2(C1)CN(C(=O)C(C)C)C2 [Compound 116, 4-chloro-N-(5-((4-fluorophenyl)ethynyl)-3-methylpyridin-2-yl)-1-(2-isobutyryl-2-azaspiro[3.3]heptan-6-yl)-1H-pyrazole-5-carboxamide] |
| 200 | Cc1cc(C#Cc2cccs2)cnc1NC(=O)c1c(Cl)cnn1C1CCN(C(=O)C(C)C)CC1 [Compound 111, 4-chloro-1-(1-isobutyrylpiperidin-4-yl)-N-(3-methyl-5-(thiophen-2-ylethynyl)pyridin-2-yl)-1H-pyrazole-5-carboxamide] |
| 240 | CC(=O)N[C@H]1C[C@H](n2ncc(Cl)c2C(=O)Nc2ncc(C#Cc3ccccc3)cc2C)C1 [Compound 156, 1-(trans-3-acetamidocyclobutyl)-4-chloro-N-(3-methyl-5-(phenylethynyl)pyridin-2-yl)-1H-pyrazole-5-carboxamide] |
| 280 | CC(C)C(=O)N1CC2(CC(n3ncc(Cl)c3C(=O)Nc3ncc(C#Cc4ccccc4)cc3F)C2)C1 [Compound 182, 4-chloro-N-(3-fluoro-5-(phenylethynyl)pyridin-2-yl)-1-(2-isobutyryl-2-azaspiro[3.3]heptan-6-yl)-1H-pyrazole-5-carboxamide] |
| 220 | O=C(Nc1ncc(C#Cc2cccs2)cc1F)c1c(Cl)cnn1C1CCN(C(=O)C2CC2)CC1 [Compound 139, 4-chloro-1-(1-(cyclopropanecarbonyl)piperidin-4-yl)-N-(3-fluoro-5-(thiophen-2-ylethynyl)pyridin-2-yl)-1H-pyrazole-5-carboxamide] |
| 130 | CC(=O)N1CC[C@H](Cn2ncc(Cl)c2C(=O)Nc2ncc(C#Cc3ccccc3)cc2F)[C@H](F)C1 [Compound 48, 1-(((3S,4R)-1-acetyl-3-fluoropiperidin-4-yl)methyl)-4-chloro-N-(3-fluoro-5-(phenylethynyl)pyridin-2-yl)-1H-pyrazole-5-carboxamide] |

same assay, conditions: read-out: Tl^+ Assay % inhibition at 30 uM (Minus value indicates activation of TREK-1); at 30 uM; CHO-K1 cells stably expressing human TREK-1; minus = activation

| inhibition at 30 µM [%] | SMILES |
| --- | --- |
| -94 | Cc1cc(C#Cc2cccc(F)c2)cnc1NC(=O)c1nn(CCC2CCN(C(=O)C3CC3)CC2)cc1Cl [Compound 450, 4-chloro-1-(2-(1-(cyclopropanecarbonyl)piperidin-4-yl)ethyl)-N-(5-((3-fluorophenyl)ethynyl)-3-methylpyridin-2-yl)-1H-pyrazole-3-carboxamide] |
| -116 | Cc1cc(C#Cc2ccccc2)cnc1NC(=O)c1nn(C2CCOCC2)cc1Cl [Compound 443, 4-chloro-N-(3-methyl-5-(phenylethynyl)pyridin-2-yl)-1-(tetrahydro-2H-pyran-4-yl)-1H-pyrazole-3-carboxamide] |
| -135 | CC(=O)N1CCC(CCn2cc(Cl)c(C(=O)Nc3ncc(C#Cc4cccs4)cc3C)n2)CC1 [Compound 440, 1-(2-(1-actetylpiperidin-4-yl)ethyl)-4-chloro-N-(3-methyl-5-(thiophen-2-ylethynyl)pyridin-2-yl)-1H-pyrazole-3-carboxamide] |

— patent US20240182445A1 (ONO PHARMACEUTICAL CO., LTD., priority 2019, published 2024)
